What follows are compounds tested on HeLa viability, CellTiter-Glo ATP luminescence, 8-48 h (assay: cytotoxicity in HeLa cervical cancer cells – cell-based, CellTiter-Glo ATP luminescence, 8-48 h, dry powder, mechanism study for HRAS target identification, late-stage follow-up (AID 720609)). Conditions: measured here: AC50 at 8 h.

In order of rising AC50:
1. COC(=O)c1ccc([C@@H]2c3[nH]c4ccccc4c3C[C@@H](C(=O)OC)N2C(=O)CCl)cc1  512 nM
2. CC(C)(C)OC(=O)NCCOCCOCCOc1ccc(N(C(=O)CCl)C(C(=O)NCCc2ccccc2)c2cccs2)cc1Cl (stereo not drawn)  515 nM
3. COc1ccc(N(C(=O)CCl)C(C(=O)NCCc2ccccc2)c2cccs2)cc1Cl (stereo not drawn)  725 nM
4. C#CCCCC(=O)NCCOCCOCCOc1ccc(N(C(=O)CCl)C(C(=O)NCCc2ccccc2)c2cccs2)cc1Cl (stereo not drawn)  6100 nM

Same assay, conditions: measured here: AC50 at 24 h

Going from `CCC(=O)N(c1ccc(OC)c(Cl)c1)C(C(=O)NCCc1ccccc1)c1cccs1` (stereo not drawn) to `COc1ccc(N(C(=O)CCl)C(C(=O)NCCc2ccccc2)c2cccs2)cc1Cl` (stereo not drawn), the AC50 falls from greater than 70000 nM to 323 nM.

Going from `CC(C)(C)OC(=O)NCCOCCOCCOc1ccc(N(C(=O)CCl)C(C(=O)NCCc2ccccc2)c2cccs2)cc1Cl` (stereo not drawn) to `C#CCCCC(=O)NCCOCCOCCOc1ccc(N(C(=O)CCl)C(C(=O)NCCc2ccccc2)c2cccs2)cc1Cl` (stereo not drawn), the AC50 rises from 564 nM to 3100 nM (5.5-fold).

Compound `COC(=O)c1ccc([C@@H]2c3[nH]c4ccccc4c3C[C@@H](C(=O)OC)N2C(=O)CCl)cc1` has an AC50 of 609 nM.

Same assay, conditions: measured here: AC50 at 48 h

In order of rising AC50:
1. COC(=O)c1ccc([C@@H]2c3[nH]c4ccccc4c3C[C@@H](C(=O)OC)N2C(=O)CCl)cc1  602 nM
2. COc1ccc(N(C(=O)CCl)C(C(=O)NCCc2ccccc2)c2cccs2)cc1Cl (stereo not drawn)  699 nM
3. CC(C)(C)OC(=O)NCCOCCOCCOc1ccc(N(C(=O)CCl)C(C(=O)NCCc2ccccc2)c2cccs2)cc1Cl (stereo not drawn)  946 nM
4. C#CCCCC(=O)NCCOCCOCCOc1ccc(N(C(=O)CCl)C(C(=O)NCCc2ccccc2)c2cccs2)cc1Cl (stereo not drawn)  4790 nM

— PubChem BioAssay AID720609 (Broad Institute, 2013)
